From PubChem BioAssay (NCI)
Values joined by “and” are separate entries in the source; they are usually repeats but may differ in a detail not shown here. Identical values can stand only once.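 Grown in 96-well plates, cells were treated for 48 hours with each compound at five concentrations. Insufficient inhibition: endpoint recorded as highest concentration tested. GI50 = concentration required for 50% inhibition of growth. TGI: total growth inhibition.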

Columns and labels:
Experiment in all cases: growth of human tumour cells (NCI), 48 h
EKVX NSCLC = tested on: EKVX NSCLC
SNB-19 CNS = tested on: SNB-19 CNS
MDA-MB-435 = tested on: MDA-MB-435
OVCAR-4 ovarian = tested on: OVCAR-4 ovarian
SF-539 CNS = tested on: SF-539 CNS
SK-MEL-28 melanoma = tested on: SK-MEL-28 melanoma
OVCAR-8 ovarian = tested on: OVCAR-8 ovarian
NCI-H23 lung = tested on: NCI-H23 lung
PC-3 prostate = tested on: PC-3 prostate
HT29 colon = tested on: HT29 colon

| Structure (SMILES) | GI50 (EKVX NSCLC) | TGI (EKVX NSCLC) | GI50 (SNB-19 CNS) | TGI (SNB-19 CNS) | GI50 (MDA-MB-435) | TGI (MDA-MB-435) | GI50 (OVCAR-4 ovarian) | TGI (OVCAR-4 ovarian) | GI50 (SF-539 CNS) | TGI (SF-539 CNS) | GI50 (SK-MEL-28 melanoma) | TGI (SK-MEL-28 melanoma) [µM] | GI50 (OVCAR-8 ovarian) | TGI (OVCAR-8 ovarian) | GI50 (NCI-H23 lung) | TGI (NCI-H23 lung) | GI50 (PC-3 prostate) | TGI (PC-3 prostate) | GI50 (HT29 colon) | TGI (HT29 colon) |
| --- | --- | --- | --- | --- | --- | --- | --- | --- | --- | --- | --- | --- | --- | --- | --- | --- | --- | --- | --- | --- |
| COc1ccc(C(=O)Cn2c(C(=O)c3ccccc3)nc3ccccc32)cc1 | 7.21 µM | > 100 µM | 6.74 µM | > 100 µM | 0.304 µM | 1.87 µM | 9.9 µM | > 100 µM | 3.03 µM | > 100 µM | 3.91 µM | > 100 | 10.2 µM | > 100 µM | 5.08 µM | > 100 µM | 4.56 µM | > 100 µM | 1.25 µM | > 100 µM |
| O=C1NC(N/N=C\C(O)C(O)C(O)C(O)CO)=N/C1=C/c1ccccc1 (stereo not given) | > 100 µM and 19.9 µM | > 100 µM and 51 µM | 58 µM and 15.3 µM and > 100 µM | > 100 µM and 33.3 µM | 85.7 µM and 15.7 µM and > 100 µM | > 100 µM and 34.9 µM | 52.7 µM and 14.5 µM and > 100 µM | > 100 µM and 33.8 µM | > 100 µM and 17.4 µM | > 100 µM and 35.3 µM | 37.3 µM and 24 µM and > 100 µM | > 100 | > 100 µM and 22.8 µM | > 100 µM and 52.5 µM | > 100 µM and 19.3 µM | > 100 µM and 36.5 µM | 47.5 µM and 14.5 µM and > 100 µM | > 100 µM and 28 µM | > 100 µM and 23.2 µM | > 100 µM and 44.5 µM |
| CN(C)Cc1ccc(-c2cc3onc(-c4ccccc4)c3c(=O)n2C)cc1 | – | > 100 µM | – | > 100 µM | – | 59.8 µM | – | > 100 µM | – | 46.8 µM | – | 41.2 | – | > 100 µM | – | > 100 µM | – | > 100 µM | – | 29.8 µM |
| O=C(CCN1CCCC1)Nc1ccc2c(NCc3ccccc3)c3ccccc3nc2c1 | 0.448 µM | 2.34 µM | 0.408 µM | 1.83 µM | 0.481 µM | 1.69 µM | 0.381 µM | 1.63 µM | 0.422 µM | 1.58 µM | 1.17 µM | 2.49 | 0.452 µM | 2.84 µM | 0.392 µM | 1.57 µM | 0.442 µM | 2.03 µM | 0.324 µM | 1.7 µM |
| COc1ccc(-c2c(C)c(C(=O)O)nc(-c3ccc4c(O)c(OC)c5c(c4n3)=NC(C)(C)N=5)c2N)c(O)c1OC | – | > 100 µM | – | 95 µM | – | 30.7 µM | – | > 100 µM | – | 35.5 µM | – | 59.8 | – | 21.5 µM | – | 6.95 µM | – | > 100 µM | – | > 100 µM |
| CCCCCCCCCCCC1=NC(C)(C)CN1C(C)(C)CO | 2.77 µM | 16.9 µM | 5.15 µM | 20.2 µM | 1.73 µM | 3.5 µM | 4.61 µM | 15.8 µM | 1.85 µM | 3.51 µM | 1.83 µM | 3.41 | 3.33 µM | 13.4 µM | 2.11 µM | 4.67 µM | 3.11 µM | 12.8 µM | 1.92 µM | 4.1 µM |
